Measurements: ChEMBL document CHEMBL5352403, “Monoamine oxidase inhibitors: A concise review with special emphasis on structure activity relationship studies” (Eur J Med Chem, 2022)
One block for each compound: values may come before it.

Columns and labels:
[1] = molecular target: T1, Amine oxidase [flavin-containing] B (Homo sapiens, UniProt P27338); experiment: Inhibition of recombinant human MAO-B using p-tyramine as substrate incubated for 15 mins by Amplex Red reagent and horseradish peroxidase based fluorometric analysis
T1 sequence (P27338 whole entry): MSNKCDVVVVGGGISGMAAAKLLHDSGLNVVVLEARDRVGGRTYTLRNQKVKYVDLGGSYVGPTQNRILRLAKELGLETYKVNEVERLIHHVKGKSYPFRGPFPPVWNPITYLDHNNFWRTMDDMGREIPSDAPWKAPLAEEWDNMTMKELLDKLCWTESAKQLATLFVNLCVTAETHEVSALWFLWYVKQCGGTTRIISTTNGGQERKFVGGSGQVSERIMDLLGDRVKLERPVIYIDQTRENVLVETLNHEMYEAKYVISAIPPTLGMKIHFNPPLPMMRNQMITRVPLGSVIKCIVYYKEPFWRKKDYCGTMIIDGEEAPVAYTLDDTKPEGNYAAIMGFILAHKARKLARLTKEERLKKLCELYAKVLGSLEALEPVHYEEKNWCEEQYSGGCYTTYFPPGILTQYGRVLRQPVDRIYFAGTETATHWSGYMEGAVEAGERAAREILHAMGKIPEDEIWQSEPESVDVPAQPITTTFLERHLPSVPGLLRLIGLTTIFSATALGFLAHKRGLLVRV

[2] = molecular target: T1, Amine oxidase [flavin-containing] B; experiment: Reversible inhibition of recombinant human MAO-B incubated for 30 mins by dilution assay
[3] = molecular target: T1, Amine oxidase [flavin-containing] B; experiment: Inhibition of recombinant human MAO-B using kynuramine as substrate incubated for 30 mins by fluorimetric analysis
[4] = molecular target: T2, Amine oxidase [flavin-containing] A (Homo sapiens, UniProt P21397); experiment: Inhibition of recombinant human MAO-A using kynuramine as substrate incubated for 30 mins by fluorimetric analysis
T2 sequence (P21397 whole entry): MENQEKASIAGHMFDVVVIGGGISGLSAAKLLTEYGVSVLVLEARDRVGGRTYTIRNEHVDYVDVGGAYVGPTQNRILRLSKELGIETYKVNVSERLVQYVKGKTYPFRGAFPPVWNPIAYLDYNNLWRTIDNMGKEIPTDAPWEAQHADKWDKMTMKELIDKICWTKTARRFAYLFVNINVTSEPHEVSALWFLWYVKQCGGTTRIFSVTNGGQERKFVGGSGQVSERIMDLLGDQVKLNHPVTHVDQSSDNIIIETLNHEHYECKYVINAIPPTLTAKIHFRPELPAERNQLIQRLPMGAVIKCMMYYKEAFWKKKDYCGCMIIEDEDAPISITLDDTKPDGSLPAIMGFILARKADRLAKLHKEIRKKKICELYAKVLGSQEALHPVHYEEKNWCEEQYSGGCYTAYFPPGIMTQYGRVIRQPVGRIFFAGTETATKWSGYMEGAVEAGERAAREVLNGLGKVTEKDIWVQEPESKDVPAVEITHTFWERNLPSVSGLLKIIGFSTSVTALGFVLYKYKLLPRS

[5] = molecular target: T2, Amine oxidase [flavin-containing] A; experiment: Inhibition of recombinant human MAO-A assessed as inhibition constant by Lineweaver-Burk plot analysis
[6] = molecular target: T1, Amine oxidase [flavin-containing] B; experiment: Inhibition of recombinant human MAO-B expressed in baculovirus infected BTI insect cells using p-tyramine as substrate incubated for 15 mins by Amplex Red reagent and horseradish peroxidase based fluorometric analysis
[7] = molecular target: T1, Amine oxidase [flavin-containing] B; experiment: Inhibition of human MAO-B using p-tyramine as substrate incubated for 10 mins by Amplex Red reagent and horseradish peroxidase based fluorescence analysis
[8] = molecular target: T2, Amine oxidase [flavin-containing] A; experiment: Inhibition of recombinant human MAO-A using tyramine as substrate incubated for 60 mins by Ampliflu red reagent and horseradish peroxidase based fluorometric analysis
[9] = molecular target: T1, Amine oxidase [flavin-containing] B; experiment: Inhibition of recombinant human MAO-B using kynuramine as substrate incubated for 20 mins by spectrophotometric assay
[10] = molecular target: T1, Amine oxidase [flavin-containing] B; experiment: Inhibition of recombinant human MAO-B using benzylamine as substrate incubated for 15 mins by spectrophotometric assay
[11] = molecular target: T1, Amine oxidase [flavin-containing] B; experiment: Inhibition of recombinant human MAO-B using benzylamine as substrate incubated for 30 mins by spectrophotometric assay
[12] = molecular target: T2, Amine oxidase [flavin-containing] A; experiment: Competitive inhibition of recombinant human MAO-A using tyramine hydrochloride as substrate by Ampliflu red reagent and horseradish peroxidase based fluorescence microplate reader analysis
[13] = molecular target: T1, Amine oxidase [flavin-containing] B; experiment: Inhibition of recombinant human MAO-B using p-tyramine as substrate incubated for 1 hr by Amplex Red reagent and horseradish peroxidase based fluorescence microplate reader analysis
[14] = molecular target: T1, Amine oxidase [flavin-containing] B; experiment: Inhibition of recombinant human MAO-B using p-tyramine as substrate incubated for 60 mins by Amplex Red reagent and horseradish peroxidase based fluorescence microplate reader analysis
[15] = Inhibition of goat liver MAO-B using p-tyramine as substrate incubated for 60 mins by spectrophotometric assay; type: tissue-based, Capra hircus
Homo sapiens = species on record: Homo sapiens; experiment: Selectivity index, ratio of IC50 for inhibition of recombinant human MAO-A to IC50 for inhibition of recombinant human MAO-B
[16] = molecular target: T1, Amine oxidase [flavin-containing] B; experiment: Inhibition of recombinant human MAO-B expressed in baculovirus infected BTI-TN-5B1-4 insect cells using p-tyramine as substrate incubated for 15 mins by Amplex Red reagent and horseradish peroxidase based fluorometric analysis
[17] = molecular target: T2, Amine oxidase [flavin-containing] A; experiment: Inhibition of recombinant human MAO-A using p-tyramine as substrate incubated for 15 mins by Amplex Red reagent and horseradish peroxidase based fluorometric analysis
[18] = molecular target: T1, Amine oxidase [flavin-containing] B; experiment: Inhibition of recombinant human MAO-B using kynuramine as substrate incubated for 20 mins by fluorescence based assay
[19] = molecular target: T2, Amine oxidase [flavin-containing] A; experiment: Inhibition of recombinant human MAO-A using kynuramine as substrate incubated for 20 mins by fluorescence based assay
[20] = molecular target: T1, Amine oxidase [flavin-containing] B; experiment: Inhibition of recombinant human MAO-B using kynuramine as substrate incubated for 30 mins by spectrophotometric assay
[21] = molecular target: T1, Amine oxidase [flavin-containing] B; experiment: Inhibition of MAO-B (unknown origin) using p-tyramine as substrate incubated for 60 mins by Ampliflu red reagent and horseradish peroxidase based fluorometric analysis
[22] = molecular target: T3, Amine oxidase [flavin-containing] B (Rattus norvegicus, UniProt P19643); experiment: Inhibition of rat brain mitochondria MAO-B using p-tyramine as substrate incubated for 15 mins by Amplex Red reagent and horseradish peroxidase based fluorometric analysis
T3 sequence (P19643 whole entry): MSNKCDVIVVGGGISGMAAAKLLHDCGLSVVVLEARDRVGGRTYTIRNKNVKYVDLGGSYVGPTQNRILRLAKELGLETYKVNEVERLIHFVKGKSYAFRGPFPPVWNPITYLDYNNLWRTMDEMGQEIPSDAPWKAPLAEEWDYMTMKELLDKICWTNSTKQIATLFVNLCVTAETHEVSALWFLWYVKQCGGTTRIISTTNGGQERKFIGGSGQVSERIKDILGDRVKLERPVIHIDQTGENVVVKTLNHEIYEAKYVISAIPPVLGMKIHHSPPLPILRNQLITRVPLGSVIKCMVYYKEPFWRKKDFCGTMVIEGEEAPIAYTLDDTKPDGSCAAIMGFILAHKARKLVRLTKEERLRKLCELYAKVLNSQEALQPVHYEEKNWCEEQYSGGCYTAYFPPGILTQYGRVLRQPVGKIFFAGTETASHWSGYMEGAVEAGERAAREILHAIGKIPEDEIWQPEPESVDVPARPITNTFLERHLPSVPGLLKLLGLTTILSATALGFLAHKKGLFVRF

[23] = molecular target: T1, Amine oxidase [flavin-containing] B; experiment: Inhibition of recombinant human MAO-B using kynuramine as substrate incubated for 20 mins by spectramax fluorescence microplate reader analysis
[24] = molecular target: T2, Amine oxidase [flavin-containing] A; experiment: Inhibition of recombinant human MAO-A assessed as inhibition constant incubated for 60 mins by Amplex Red reagent and horseradish peroxidase based fluorometric analysis
[25] = molecular target: T3, Amine oxidase [flavin-containing] B; experiment: Inhibition of rat brain mitochondria MAO-B using benzylamine as substrate incubated for 30 mins by fluorescence microplate reader analysis
[26] = molecular target: T2, Amine oxidase [flavin-containing] A; experiment: Inhibition of recombinant human MAO-A using kynuramine as substrate incubated for 30 mins by spectrophotometric assay

SMILES: O=c1cc(CCCl)c2ccc(OCc3cccc(Cl)c3)cc2o1
IC50 [1]: 0.37 nM

SMILES: O=C(CSc1nc2cc(Cl)ccc2s1)N(Cc1cccc([N+](=O)[O-])c1)c1ccc(F)cc1
IC50 [3]: 2950 nM
IC50 [4]: 17000 nM

SMILES: COc1ccc(C2CC(c3ccccc3)=NN2C(=O)Cn2c(=O)oc3ccccc32)cc1OC (stereo unspecified)
Ki [5]: 850 nM

SMILES: Cc1cccc(NC(=S)N2N=C(c3ccc(O)cc3)CC2c2cccs2)c1 (stereo unspecified)
IC50 [6]: 200 nM

SMILES: O=c1oc2cc(Br)ccc2cc1-c1ccc(Br)nn1
IC50 [7]: 60 nM

SMILES: CN1CCN(c2ccc(/C=N/Nc3ccccc3)cc2)CC1
IC50 [8]: 28 nM

SMILES: O=C1Oc2ccccc2C(=O)/C1=C\NCc1ccccc1
IC50 [9]: 638 nM

SMILES: Cc1ccc2oc(=O)c(-c3cccc(N)c3)cc2c1
IC50 [7]: 60 nM

SMILES: c1ccc(C(c2ccccc2)N2CCN(c3c4ccccc4cc4ccccc34)CC2)cc1
Ratio IC50 (Homo sapiens): > 150

SMILES: Cc1cc(S(=O)(=O)N2CCN(C(c3ccccc3)c3ccccc3)CC2)c(C)cc1Cl
Ratio IC50 (Homo sapiens): 0.07

SMILES: O=c1oc2ccc(Cl)cc2c(O)c1-c1ccccc1O
IC50 [17]: 55500 nM

SMILES: Oc1cc(Cl)ccc1NC(=S)Nc1ccc2[nH]ccc2c1
IC50 [9]: 638 nM

SMILES: CCOC(=O)C(C(=O)N/N=C/c1ccc([N+](=O)[O-])cc1)[n+]1ccc2ccccc2c1 (stereo unspecified)
IC50 [18]: 20 nM
IC50 [19]: 47 nM

SMILES: N/N=C/c1ccc(Cl)cc1
IC50 [11]: 2 nM

SMILES: Cc1c(/N=C/c2ccc([N+](=O)[O-])cc2)c(=O)n(-c2ccccc2)n1C
IC50 [21]: 49 nM

SMILES: COc1ccc2cc(C(=O)NCCn3ccc(=O)c(O)c3C)c(=O)oc2c1
IC50 [13]: 290 nM

Next, values leading:

IC50 [1]: 0.37 nM
IC50 [2]: 4 nM
SMILES: O=C1CCc2ccc(OCc3ccccc3F)cc2O1

IC50 [10]: 650 nM
SMILES: CSc1ccc(C(=O)/C=C/c2cccc3c2OCO3)cc1

IC50 [11]: 2 nM
IC50 [12]: 95 nM
SMILES: O=C(/C=C/c1ccc(F)cc1)c1ccc2c(c1)OCCO2

IC50 [13]: 290 nM
IC50 [14]: 53 nM
SMILES: COc1ccc(C(=O)/C=C/c2ccc(N(C)C)cc2)cc1

IC50 [15]: 380 nM
SMILES: OCC/N=C/c1cn(-c2ccccc2)nc1-c1ccc(F)cc1

IC50 [16]: 24 nM
IC50 [15]: 340 nM
SMILES: C/N=C/c1cn(-c2ccccc2)nc1-c1ccc(F)cc1

IC50 [20]: 10 nM
SMILES: C#CCN(C)c1ccc(/C=C/c2cnc(C)c3c2COC(C)(C)O3)cc1

Ki [5]: 850 nM
IC50 [22]: 5 nM
SMILES: Cc1ccc(/C=N/NC(=O)c2cc(-c3ccccc3)on2)cc1

IC50 [23]: 17 nM
SMILES: COc1ccc2oc(/C=C/c3ccc(Cl)cc3)cc(=O)c2c1

Ki [24]: 160 nM
SMILES: O=C(CN1CCNCC1)N1N=C(c2ccc(F)cc2)CC1c1cc(Cl)ccc1O (stereo unspecified)

IC50 [25]: 212 nM
IC50 [26]: 29 nM
SMILES: CCc1ccc(/C=C/C(=O)c2ccc3c(c2)OCO3)cc1

IC50 [20]: 10 nM
SMILES: Cc1ncc(/C=C/c2ccc(O)cc2)c2c1OC(C)(C)OC2
